Reference: the supplement of paper PMC11208160

Experiment: recombinant barcode read abundance after kanamycin selection (control-corrected) (log10(CPM+1)); higher = more efficient recombination; sequences stand for … in AGTGCAGAGAAAATCGGCCAGTTTTCTCTGCCTGCAGTCCGCATGCCGT…ATTTATGCAGCGGACTGCCTTTCTCCCAAAGTGATAAACCGGACAGTATCATGGACCGGTTTTCCCGGTAATCCGTATTTGCAAGGTTGGTTTCACT; site = the 11-nt target
Method: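 Same pooled E. coli target screen (IS621 bridge recombinase, kanamycin selection, control-corrected CPM, mean of 2 biological replicates). Here the two core-binding nucleotides of the LTG and RTG of the bridge RNA target-binding loop are mutated. Target and donor CT cores are held constant, and the other 9 guide positions match the target. The target is read from the library oligo sequence. Molecule = full bridge RNA written as DNA: nt 1-80 from the library oligo, rest WT scaffold.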

| Sequence | recombinant barcode read abundance (log10) |
| --- | --- |
| AAACATGGTTGGGTTCTAACCTGTTGCCTAC [AAACATGCTAG_LTGcore_GT_RTGcore_GT] (site AAACATGCTAG) (LTG core: GT, RTG core: GT) | 0.108 |
| AAACATGTATGGGTTCTAACCTGTTGCCTAG [AAACATGCTAG_LTGcore_TA_RTGcore_CT] (site AAACATGCTAG) (LTG core: TA, RTG core: CT) | 0.0615 |
| AAACATGTCTGGGTTCTAACCTGTTGCCTAG [AAACATGCTAG_LTGcore_TC_RTGcore_CT] (site AAACATGCTAG) (LTG core: TC, RTG core: CT) | 0.0742 |
| AAACATGTCTGGGTTCTAACCTGTTGCCTGA [AAACATGCTAG_LTGcore_TC_RTGcore_TC] (site AAACATGCTAG) (LTG core: TC, RTG core: TC) | 0.0728 |
| ACGGGACACTGGGTTCTAACCTGTTGCAGAG [ACGGGACCTCT_LTGcore_AC_RTGcore_CT] (site ACGGGACCTCT) (LTG core: AC, RTG core: CT) | 0.0883 |
| ACGGGACACTGGGTTCTAACCTGTTGCAGGT [ACGGGACCTCT_LTGcore_AC_RTGcore_AC] (site ACGGGACCTCT) (LTG core: AC, RTG core: AC) | 0.0869 |
| ACGGGACCTTGGGTTCTAACCTGTTGCAGAG [ACGGGACCTCT_LTGcore_CT_RTGcore_CT] (site ACGGGACCTCT) (LTG core: CT, RTG core: CT) | 2.63 |
| ACGGGACCTTGGGTTCTAACCTGTTGCAGCC [ACGGGACCTCT_LTGcore_CT_RTGcore_GG] (site ACGGGACCTCT) (LTG core: CT, RTG core: GG) | 1.11 |
| ACGGGACCTTGGGTTCTAACCTGTTGCAGCG [ACGGGACCTCT_LTGcore_CT_RTGcore_CG] (site ACGGGACCTCT) (LTG core: CT, RTG core: CG) | 0.0844 |
| ACGGGACCTTGGGTTCTAACCTGTTGCAGGG [ACGGGACCTCT_LTGcore_CT_RTGcore_CC] (site ACGGGACCTCT) (LTG core: CT, RTG core: CC) | 0.931 |
| ACGGGACCTTGGGTTCTAACCTGTTGCAGTA [ACGGGACCTCT_LTGcore_CT_RTGcore_TA] (site ACGGGACCTCT) (LTG core: CT, RTG core: TA) | 0.818 |
| ACGGGACCTTGGGTTCTAACCTGTTGCAGTG [ACGGGACCTCT_LTGcore_CT_RTGcore_CA] (site ACGGGACCTCT) (LTG core: CT, RTG core: CA) | 0.172 |
| ACGGGACGATGGGTTCTAACCTGTTGCAGTC [ACGGGACCTCT_LTGcore_GA_RTGcore_GA] (site ACGGGACCTCT) (LTG core: GA, RTG core: GA) | 0.229 |
| ACGGGACGGTGGGTTCTAACCTGTTGCAGCC [ACGGGACCTCT_LTGcore_GG_RTGcore_GG] (site ACGGGACCTCT) (LTG core: GG, RTG core: GG) | 0.12 |
| AGGAGGTACTGGGTTCTAACCTGTTGCCTAG [AGGAGGTCTAG_LTGcore_AC_RTGcore_CT] (site AGGAGGTCTAG) (LTG core: AC, RTG core: CT) | 0.105 |
| AGGAGGTCTTGGGTTCTAACCTGTTGCCTAA [AGGAGGTCTAG_LTGcore_CT_RTGcore_TT] (site AGGAGGTCTAG) (LTG core: CT, RTG core: TT) | 0.203 |
| AGGAGGTCTTGGGTTCTAACCTGTTGCCTAG [AGGAGGTCTAG_LTGcore_CT_RTGcore_CT] (site AGGAGGTCTAG) (LTG core: CT, RTG core: CT) | 1.59 |
| AGGAGGTCTTGGGTTCTAACCTGTTGCCTAT [AGGAGGTCTAG_LTGcore_CT_RTGcore_AT] (site AGGAGGTCTAG) (LTG core: CT, RTG core: AT) | 0.407 |
| AGGAGGTCTTGGGTTCTAACCTGTTGCCTCA [AGGAGGTCTAG_LTGcore_CT_RTGcore_TG] (site AGGAGGTCTAG) (LTG core: CT, RTG core: TG) | 0.322 |
| AGGAGGTCTTGGGTTCTAACCTGTTGCCTCG [AGGAGGTCTAG_LTGcore_CT_RTGcore_CG] (site AGGAGGTCTAG) (LTG core: CT, RTG core: CG) | 0.386 |
| AGGAGGTCTTGGGTTCTAACCTGTTGCCTGT [AGGAGGTCTAG_LTGcore_CT_RTGcore_AC] (site AGGAGGTCTAG) (LTG core: CT, RTG core: AC) | 0.126 |
| AGGAGGTTCTGGGTTCTAACCTGTTGCCTGA [AGGAGGTCTAG_LTGcore_TC_RTGcore_TC] (site AGGAGGTCTAG) (LTG core: TC, RTG core: TC) | 0.0288 |

| Sequence | recombinant barcode read abundance (log10) |
| --- | --- |
| AGGCCTCAATGGGTTCTAACCTGTTGCCTTT [AGGCCTCCTAG_LTGcore_AA_RTGcore_AA] (site AGGCCTCCTAG) (LTG core: AA, RTG core: AA) | 0.0414 |
| AGGCCTCACTGGGTTCTAACCTGTTGCCTAG [AGGCCTCCTAG_LTGcore_AC_RTGcore_CT] (site AGGCCTCCTAG) (LTG core: AC, RTG core: CT) | 0.134 |
| AGGCCTCAGTGGGTTCTAACCTGTTGCCTCT [AGGCCTCCTAG_LTGcore_AG_RTGcore_AG] (site AGGCCTCCTAG) (LTG core: AG, RTG core: AG) | 0.182 |
| AGGCCTCCCTGGGTTCTAACCTGTTGCCTAG [AGGCCTCCTAG_LTGcore_CC_RTGcore_CT] (site AGGCCTCCTAG) (LTG core: CC, RTG core: CT) | 0.293 |
| AGGCCTCCTTGGGTTCTAACCTGTTGCCTCA [AGGCCTCCTAG_LTGcore_CT_RTGcore_TG] (site AGGCCTCCTAG) (LTG core: CT, RTG core: TG) | 0.154 |
| AGGCCTCCTTGGGTTCTAACCTGTTGCCTGC [AGGCCTCCTAG_LTGcore_CT_RTGcore_GC] (site AGGCCTCCTAG) (LTG core: CT, RTG core: GC) | 0.112 |
| AGGCCTCCTTGGGTTCTAACCTGTTGCCTGG [AGGCCTCCTAG_LTGcore_CT_RTGcore_CC] (site AGGCCTCCTAG) (LTG core: CT, RTG core: CC) | 0.337 |
| AGGCCTCCTTGGGTTCTAACCTGTTGCCTTG [AGGCCTCCTAG_LTGcore_CT_RTGcore_CA] (site AGGCCTCCTAG) (LTG core: CT, RTG core: CA) | 0.722 |
| AGGCCTCGGTGGGTTCTAACCTGTTGCCTCC [AGGCCTCCTAG_LTGcore_GG_RTGcore_GG] (site AGGCCTCCTAG) (LTG core: GG, RTG core: GG) | 0.0521 |
| AGGCCTCTCTGGGTTCTAACCTGTTGCCTGA [AGGCCTCCTAG_LTGcore_TC_RTGcore_TC] (site AGGCCTCCTAG) (LTG core: TC, RTG core: TC) | 0.047 |
| AGGCCTCTTTGGGTTCTAACCTGTTGCCTAA [AGGCCTCCTAG_LTGcore_TT_RTGcore_TT] (site AGGCCTCCTAG) (LTG core: TT, RTG core: TT) | 0.196 |
| AGGCCTCTTTGGGTTCTAACCTGTTGCCTAG [AGGCCTCCTAG_LTGcore_TT_RTGcore_CT] (site AGGCCTCCTAG) (LTG core: TT, RTG core: CT) | 0.103 |
| AGGCGGGCATGGGTTCTAACCTGTTGCGGAG [AGGCGGGCTCC_LTGcore_CA_RTGcore_CT] (site AGGCGGGCTCC) (LTG core: CA, RTG core: CT) | 2.3 |
| AGGCGGGCATGGGTTCTAACCTGTTGCGGTG [AGGCGGGCTCC_LTGcore_CA_RTGcore_CA] (site AGGCGGGCTCC) (LTG core: CA, RTG core: CA) | 0.776 |
| AGGCGGGCGTGGGTTCTAACCTGTTGCGGCG [AGGCGGGCTCC_LTGcore_CG_RTGcore_CG] (site AGGCGGGCTCC) (LTG core: CG, RTG core: CG) | 0.0653 |
| AGGCGGGCTTGGGTTCTAACCTGTTGCGGAA [AGGCGGGCTCC_LTGcore_CT_RTGcore_TT] (site AGGCGGGCTCC) (LTG core: CT, RTG core: TT) | 0.532 |
| AGGCGGGCTTGGGTTCTAACCTGTTGCGGGG [AGGCGGGCTCC_LTGcore_CT_RTGcore_CC] (site AGGCGGGCTCC) (LTG core: CT, RTG core: CC) | 0.756 |
| AGGCGGGGGTGGGTTCTAACCTGTTGCGGCC [AGGCGGGCTCC_LTGcore_GG_RTGcore_GG] (site AGGCGGGCTCC) (LTG core: GG, RTG core: GG) | 0.0346 |
| AGGCGGGTATGGGTTCTAACCTGTTGCGGAG [AGGCGGGCTCC_LTGcore_TA_RTGcore_CT] (site AGGCGGGCTCC) (LTG core: TA, RTG core: CT) | 0.232 |
| AGGCGGGTTTGGGTTCTAACCTGTTGCGGAG [AGGCGGGCTCC_LTGcore_TT_RTGcore_CT] (site AGGCGGGCTCC) (LTG core: TT, RTG core: CT) | 0.475 |
| AGGCGGTACTGGGTTCTAACCTGTTGCTTAG [AGGCGGTCTAA_LTGcore_AC_RTGcore_CT] (site AGGCGGTCTAA) (LTG core: AC, RTG core: CT) | 0.272 |
| AGGCGGTATTGGGTTCTAACCTGTTGCTTAT [AGGCGGTCTAA_LTGcore_AT_RTGcore_AT] (site AGGCGGTCTAA) (LTG core: AT, RTG core: AT) | 0.109 |
